Our source for the AC50, IC50 and EC50 values is ChEMBL document CHEMBL1201862, “PubChem BioAssay data set” (2004).

In one data set the target is Cytochrome P450 3A4 (Homo sapiens, UniProt P08684).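 Also: CYP3A4 tested as one member of a cytochrome P450 panel screen.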
Data set [1] can be described thus: decrease of insulin promoter-GFP reporter – imaging, high-content screening, mouse beta cells (AID 1628). The data set is classed as functional. Conditions: MIN6.
Data set [2] can be described thus: MIN6 cell viability loss – mouse insulinoma, cytotoxicity control, dose response (AID 2122).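 Also: confirmatory high-throughput counterscreen run to flag cytotoxic compounds.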 The data set is classed as functional.
Data set [3] deals with T1, Delta-type opioid receptor (Homo sapiens, UniProt P41143). Description: HTS Image-Based Screen for Antagonists of the DOR Receptor. [Related pubchem assays (depositor defined):AID1777, AID1785, AID1786, AID2133]. The data set is classed as functional.
Data set [4] concerns HEK293. Briefly: inhibition of NOD1-driven NF-kB reporter – cell-based, luminescence, uHTS, primary screen (AID 1578). The data set is classed as functional. Particulars: Homo sapiens.
A further data set has as its target Mu-type opioid receptor (Homo sapiens, UniProt P35372). Briefly: HTS Image-Based Screen for Agonists of the MOR Receptor. [Related pubchem assays (depositor defined):AID1777, AID1785, AID1786, AID2133]. The data set is classed as functional.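 Also: imaging of beta-arrestin GFP recruitment into spots after receptor activation.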
Data set [5] has as its system Streptococcus sp. 'group A'. Briefly: Streptococcus pyogenes SK(-)GAS viability under kanamycin – luminescence, BacTiterGlo, confirmation, counter-screen for streptokinase expression inhibitor project, dose response (AID 1900). The data set is classed as functional, organism-based.
The target of data set [6] is T1, Delta-type opioid receptor. Briefly: HTS Image-Based Screen for Agonists of the DOR Receptor. [Related pubchem assays (depositor defined):AID1777, AID1786, AID2133]. The data set is classed as functional.
For data set [7], the system named is HEK293. Briefly: cells. The data set is classed as functional, cell-based. Particulars: Homo sapiens.
The target of data set [8] is T2, Beta-galactosidase (Escherichia coli, UniProt Q8VNN2). Briefly: PubChem AID 485352. The data set is classed as functional.
The subject of data set [9] is HEK293. Briefly: cells. Conditions: Homo sapiens. The data set is classed as functional, cell-based. The source holds these as a separate data set.
Data set [10] has as its system HEK293. Briefly: NOD2 signaling inhibitors in MDP-stimulated cells, cell-based, uHTS, luminescence (AID 2001). The data set is classed as functional. Conditions: Homo sapiens.
Data set [11] concerns the target T3, Type-1 angiotensin II receptor (Homo sapiens, UniProt P30556).
T3 sequence (P30556 whole entry): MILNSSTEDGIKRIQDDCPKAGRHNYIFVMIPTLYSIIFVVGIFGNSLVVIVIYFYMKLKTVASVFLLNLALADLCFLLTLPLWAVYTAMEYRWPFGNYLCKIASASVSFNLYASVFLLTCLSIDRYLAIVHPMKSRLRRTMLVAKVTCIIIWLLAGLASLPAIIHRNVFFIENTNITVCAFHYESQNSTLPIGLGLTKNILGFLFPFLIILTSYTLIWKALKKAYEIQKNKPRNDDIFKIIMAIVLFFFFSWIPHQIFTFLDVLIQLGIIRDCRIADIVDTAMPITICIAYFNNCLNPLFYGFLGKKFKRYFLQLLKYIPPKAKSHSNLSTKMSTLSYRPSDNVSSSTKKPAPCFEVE
Briefly: antagonism of angiotensin II type 1 receptor – cell-based, uHTS hits, selectivity assay for APJ receptor antagonist project, dose response (AID 463214).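 Also: antagonist potency against angiotensin II stimulated AT1 response.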 The data set is classed as functional.

Data set [12] concerns the target T4, Kappa-type opioid receptor (Homo sapiens, UniProt P41145). The data set is classed as functional.
Data set [13] has as its target T2, Beta-galactosidase. The data set is classed as functional.
Data set [14] concerns the target T4, Kappa-type opioid receptor. The data set is classed as functional. This is another data set of the same source.
In the next data set the test system is Streptococcus. Briefly: GAS UMAA2166 growth inhibition – luminescence, BacTiterGlo, counter-screen for streptokinase expression inhibitor project, dose response (AID 1915).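 Also: potency for reduction of bacterial viability or growth.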 The data set is classed as functional, organism-based.
For data set [15], the target named is T5, Corticotropin-releasing factor receptor 2/Corticotropin-releasing factor-binding protein (Homo sapiens, UniProt P24387+Q13324).
T5 sequence (Q13324 whole entry): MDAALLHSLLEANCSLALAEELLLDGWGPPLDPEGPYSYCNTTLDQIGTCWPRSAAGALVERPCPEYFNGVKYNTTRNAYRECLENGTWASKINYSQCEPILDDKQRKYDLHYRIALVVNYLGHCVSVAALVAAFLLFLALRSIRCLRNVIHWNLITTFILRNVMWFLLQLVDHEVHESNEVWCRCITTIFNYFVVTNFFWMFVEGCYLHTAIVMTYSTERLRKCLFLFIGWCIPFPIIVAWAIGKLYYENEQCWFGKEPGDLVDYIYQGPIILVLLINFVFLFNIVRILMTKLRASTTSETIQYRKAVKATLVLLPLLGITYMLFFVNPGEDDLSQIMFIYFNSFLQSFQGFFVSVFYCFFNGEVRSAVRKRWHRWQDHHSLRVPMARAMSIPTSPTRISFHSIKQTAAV
T5 sequence (P24387 whole entry): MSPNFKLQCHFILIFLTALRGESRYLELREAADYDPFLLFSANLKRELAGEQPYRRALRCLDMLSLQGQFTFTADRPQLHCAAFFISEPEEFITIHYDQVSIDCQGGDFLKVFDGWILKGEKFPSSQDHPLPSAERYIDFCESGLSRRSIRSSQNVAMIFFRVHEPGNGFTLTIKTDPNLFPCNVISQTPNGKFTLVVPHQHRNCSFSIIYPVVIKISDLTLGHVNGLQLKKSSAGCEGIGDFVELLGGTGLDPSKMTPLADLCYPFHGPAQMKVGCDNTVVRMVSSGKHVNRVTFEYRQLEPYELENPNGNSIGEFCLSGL
Description: Dose Response confirmation of uHTS hits for small molecule antagonists of the CRF-binding protein and CRF-R2 receptor complex. The data set is classed as functional. Conditions: read-out: IC50_Mean.

The target of data set [16] is T5, Corticotropin-releasing factor receptor 2/Corticotropin-releasing factor-binding protein. Briefly: activators of CRF receptor 2 with binding protein – uHTS hits, confirmation (AID 602473). The data set is classed as functional. Particulars: read-out: EC50_Mean.
Data set [17] is described as follows: blockers of CRF-binding protein–CRF-R2 complex – cell-based, uHTS hits, 384-well, dose response (AID 651639). Conditions: read-out: IC50_Mean. The data set is classed as functional, Homo sapiens.
Data set [18] addresses G-protein coupled receptor 55 (Homo sapiens, UniProt Q9Y2T6). Briefly: blockers of GPR55 signalling, imaged – imaging, image-based, counter-screen for GPR35 antagonist project, SAR follow-up (AID 2397). The data set is classed as functional.
The target of data set [19] is T6, Mannose-6-phosphate isomerase (Homo sapiens, UniProt P34949).
T6 sequence (P34949 whole entry): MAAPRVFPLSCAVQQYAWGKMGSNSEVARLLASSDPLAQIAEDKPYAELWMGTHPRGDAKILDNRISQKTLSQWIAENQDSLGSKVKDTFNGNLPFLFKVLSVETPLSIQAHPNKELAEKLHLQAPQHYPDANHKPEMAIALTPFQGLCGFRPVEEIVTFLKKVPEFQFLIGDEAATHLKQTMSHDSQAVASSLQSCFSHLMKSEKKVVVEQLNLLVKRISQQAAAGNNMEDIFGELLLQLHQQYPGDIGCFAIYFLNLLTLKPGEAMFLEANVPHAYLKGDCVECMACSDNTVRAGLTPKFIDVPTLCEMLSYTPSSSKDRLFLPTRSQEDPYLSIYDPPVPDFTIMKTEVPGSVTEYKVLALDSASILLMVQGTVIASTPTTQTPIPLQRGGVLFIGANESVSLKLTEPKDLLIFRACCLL
Briefly: MPI inhibition at elevated mannose 6-phosphate – biochemical, fluorescence intensity, high mannose 6-phosphate, primary screen (AID 1220).

Data set [20] concerns the target Glucose-6-phosphate 1-dehydrogenase (Homo sapiens, UniProt P11413). Description: inhibition of Homo sapiens G6PD, dose series – biochemical, fluorescence, selectivity assay for P. falciparum G6PD inhibitor project, dose response (AID 504792). The data set is classed as functional.
Data set [21] concerns the target T6, Mannose-6-phosphate isomerase. Description: phosphomannose isomerase inhibition – biochemical, fluorescence intensity, confirmation (AID 1535).
The target of another data set is Phosphomannomutase 2 (Homo sapiens, UniProt O15305). Description: Counter screen SAR assay for PMM2 inhibitors via a fluorescence intensity assay. [Related pubchem assays (depositor defined):AID1545, AID1574].
The target of another data set is Cytochrome P450 2C19 (Homo sapiens, UniProt P33261). Briefly: Cytochrome panel assay with activity outcomes. Panel member name: p450-cyp2c19 Compounds with AC50 equal or less than 10 uM are considered active. The data set is classed as functional.
In a further data set the target is T7, Cytochrome P450 1A2 (Homo sapiens, UniProt P05177).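 Also: PubChem cytochrome P450 panel assay, CYP1A2 panel member.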
T7 sequence (P05177 whole entry): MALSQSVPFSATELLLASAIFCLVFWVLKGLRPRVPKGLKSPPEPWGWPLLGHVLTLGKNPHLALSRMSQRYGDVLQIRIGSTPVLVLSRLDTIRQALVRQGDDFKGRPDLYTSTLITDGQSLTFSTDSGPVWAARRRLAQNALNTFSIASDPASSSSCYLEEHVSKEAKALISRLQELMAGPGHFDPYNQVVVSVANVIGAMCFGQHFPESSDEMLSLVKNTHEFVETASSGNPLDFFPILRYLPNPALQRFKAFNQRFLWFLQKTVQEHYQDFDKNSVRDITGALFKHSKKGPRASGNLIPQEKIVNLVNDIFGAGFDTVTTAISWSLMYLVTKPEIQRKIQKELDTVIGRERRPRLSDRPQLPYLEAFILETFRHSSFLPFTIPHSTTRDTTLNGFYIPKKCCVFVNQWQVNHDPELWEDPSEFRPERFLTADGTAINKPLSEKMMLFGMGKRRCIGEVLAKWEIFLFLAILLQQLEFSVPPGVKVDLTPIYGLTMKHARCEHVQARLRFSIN

Active and inactive are the calls of the source.

Sequence of Phosphomannomutase 2 (O15305 whole entry): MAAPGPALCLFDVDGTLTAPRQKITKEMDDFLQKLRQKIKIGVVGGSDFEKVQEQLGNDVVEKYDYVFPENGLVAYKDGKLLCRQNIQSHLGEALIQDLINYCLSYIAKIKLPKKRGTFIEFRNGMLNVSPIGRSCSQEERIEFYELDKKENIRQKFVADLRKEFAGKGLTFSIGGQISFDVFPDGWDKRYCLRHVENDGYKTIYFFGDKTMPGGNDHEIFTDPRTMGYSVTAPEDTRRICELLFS
T4 sequence (P41145 whole entry): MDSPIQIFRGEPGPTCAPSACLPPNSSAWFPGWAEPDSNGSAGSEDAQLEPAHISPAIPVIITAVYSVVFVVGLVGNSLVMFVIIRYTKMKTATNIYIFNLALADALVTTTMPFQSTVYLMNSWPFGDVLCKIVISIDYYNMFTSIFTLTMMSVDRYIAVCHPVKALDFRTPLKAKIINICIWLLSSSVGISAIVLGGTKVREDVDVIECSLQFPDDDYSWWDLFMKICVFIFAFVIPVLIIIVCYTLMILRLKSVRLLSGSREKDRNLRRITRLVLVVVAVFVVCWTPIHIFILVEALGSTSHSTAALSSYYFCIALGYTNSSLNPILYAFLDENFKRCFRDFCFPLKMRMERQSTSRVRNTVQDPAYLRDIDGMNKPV
T2 sequence (Q8VNN2 whole entry): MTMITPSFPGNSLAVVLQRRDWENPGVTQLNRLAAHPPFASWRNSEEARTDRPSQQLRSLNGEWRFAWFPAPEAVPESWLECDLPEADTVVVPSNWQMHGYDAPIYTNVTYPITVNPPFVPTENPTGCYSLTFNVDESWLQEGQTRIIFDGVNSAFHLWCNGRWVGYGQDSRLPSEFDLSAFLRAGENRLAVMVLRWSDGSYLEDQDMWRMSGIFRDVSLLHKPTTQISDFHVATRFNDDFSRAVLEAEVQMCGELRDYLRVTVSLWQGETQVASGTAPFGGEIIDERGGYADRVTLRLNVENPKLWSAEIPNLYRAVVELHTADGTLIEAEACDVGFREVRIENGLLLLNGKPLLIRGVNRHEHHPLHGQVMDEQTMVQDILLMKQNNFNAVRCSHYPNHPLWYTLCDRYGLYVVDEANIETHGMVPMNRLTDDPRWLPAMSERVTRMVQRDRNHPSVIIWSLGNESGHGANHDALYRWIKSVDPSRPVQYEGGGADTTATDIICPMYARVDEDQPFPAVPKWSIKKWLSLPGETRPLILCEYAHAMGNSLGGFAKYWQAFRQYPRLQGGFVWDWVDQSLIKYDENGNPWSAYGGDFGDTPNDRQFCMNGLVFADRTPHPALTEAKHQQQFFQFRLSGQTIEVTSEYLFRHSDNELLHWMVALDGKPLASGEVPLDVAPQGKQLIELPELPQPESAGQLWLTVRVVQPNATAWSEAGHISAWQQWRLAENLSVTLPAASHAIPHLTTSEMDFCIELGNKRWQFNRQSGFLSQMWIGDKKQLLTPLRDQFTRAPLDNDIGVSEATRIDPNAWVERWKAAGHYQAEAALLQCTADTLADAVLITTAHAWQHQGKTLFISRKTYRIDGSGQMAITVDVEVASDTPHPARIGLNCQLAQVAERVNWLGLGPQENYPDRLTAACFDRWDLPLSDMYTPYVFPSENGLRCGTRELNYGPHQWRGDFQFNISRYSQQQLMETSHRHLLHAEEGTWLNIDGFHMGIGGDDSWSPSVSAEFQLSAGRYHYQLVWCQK
Sequence of Cytochrome P450 3A4 (P08684 whole entry): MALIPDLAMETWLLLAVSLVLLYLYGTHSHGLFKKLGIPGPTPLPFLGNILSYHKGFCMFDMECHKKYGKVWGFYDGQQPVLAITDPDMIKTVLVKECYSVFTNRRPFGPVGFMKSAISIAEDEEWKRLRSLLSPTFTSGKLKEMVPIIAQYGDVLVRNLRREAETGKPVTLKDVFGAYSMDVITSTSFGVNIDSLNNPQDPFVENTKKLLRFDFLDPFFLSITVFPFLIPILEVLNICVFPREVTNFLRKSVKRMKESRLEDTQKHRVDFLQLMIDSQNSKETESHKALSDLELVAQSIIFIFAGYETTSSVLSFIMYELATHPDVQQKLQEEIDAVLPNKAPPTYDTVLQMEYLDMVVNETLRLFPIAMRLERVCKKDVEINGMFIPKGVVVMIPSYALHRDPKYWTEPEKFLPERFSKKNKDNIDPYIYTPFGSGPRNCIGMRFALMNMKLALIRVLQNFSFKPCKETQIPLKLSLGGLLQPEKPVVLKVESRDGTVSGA
T1 sequence (P41143 whole entry): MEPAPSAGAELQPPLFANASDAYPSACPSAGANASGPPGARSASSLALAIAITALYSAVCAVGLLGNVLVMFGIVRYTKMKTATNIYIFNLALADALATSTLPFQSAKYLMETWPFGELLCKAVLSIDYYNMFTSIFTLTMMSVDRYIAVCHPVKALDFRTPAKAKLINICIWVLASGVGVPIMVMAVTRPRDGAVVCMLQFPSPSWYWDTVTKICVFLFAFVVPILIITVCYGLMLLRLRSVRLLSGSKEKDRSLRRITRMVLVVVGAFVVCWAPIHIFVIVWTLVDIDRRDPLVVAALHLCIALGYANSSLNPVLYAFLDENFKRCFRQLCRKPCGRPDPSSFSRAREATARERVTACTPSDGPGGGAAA
Sequence of G-protein coupled receptor 55 (Q9Y2T6 whole entry): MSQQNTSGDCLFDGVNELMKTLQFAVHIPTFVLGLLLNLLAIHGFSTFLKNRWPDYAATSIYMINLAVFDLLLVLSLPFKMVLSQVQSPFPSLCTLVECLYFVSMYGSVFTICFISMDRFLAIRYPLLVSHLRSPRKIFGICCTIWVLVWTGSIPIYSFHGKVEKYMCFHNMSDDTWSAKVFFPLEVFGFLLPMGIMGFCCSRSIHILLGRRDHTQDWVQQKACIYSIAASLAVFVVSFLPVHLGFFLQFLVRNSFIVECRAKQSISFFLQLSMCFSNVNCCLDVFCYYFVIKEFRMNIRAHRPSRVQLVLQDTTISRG
Sequence of Cytochrome P450 2C19 (P33261 whole entry): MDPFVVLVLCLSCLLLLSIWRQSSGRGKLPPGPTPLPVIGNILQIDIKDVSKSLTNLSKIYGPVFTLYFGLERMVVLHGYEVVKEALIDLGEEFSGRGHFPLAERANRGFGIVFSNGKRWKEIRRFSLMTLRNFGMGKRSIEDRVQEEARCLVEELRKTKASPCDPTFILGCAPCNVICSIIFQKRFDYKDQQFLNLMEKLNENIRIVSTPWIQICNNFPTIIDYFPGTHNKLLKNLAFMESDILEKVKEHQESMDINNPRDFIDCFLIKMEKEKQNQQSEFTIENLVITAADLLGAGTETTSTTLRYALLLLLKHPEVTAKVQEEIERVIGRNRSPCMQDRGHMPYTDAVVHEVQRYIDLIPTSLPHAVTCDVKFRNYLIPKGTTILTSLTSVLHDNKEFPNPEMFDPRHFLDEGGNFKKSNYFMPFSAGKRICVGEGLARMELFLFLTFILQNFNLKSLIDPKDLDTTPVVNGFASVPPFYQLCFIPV
Sequence of Mu-type opioid receptor (P35372 whole entry): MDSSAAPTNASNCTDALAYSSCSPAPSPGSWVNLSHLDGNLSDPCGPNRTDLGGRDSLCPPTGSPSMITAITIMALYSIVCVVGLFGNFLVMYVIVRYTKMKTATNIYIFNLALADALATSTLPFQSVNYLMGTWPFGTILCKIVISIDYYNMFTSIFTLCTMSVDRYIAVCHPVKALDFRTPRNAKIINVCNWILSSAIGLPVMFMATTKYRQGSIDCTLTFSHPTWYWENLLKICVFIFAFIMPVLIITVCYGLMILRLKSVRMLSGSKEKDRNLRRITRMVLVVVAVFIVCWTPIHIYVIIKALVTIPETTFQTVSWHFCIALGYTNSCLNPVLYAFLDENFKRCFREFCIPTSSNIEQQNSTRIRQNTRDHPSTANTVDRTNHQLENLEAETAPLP
Sequence of Glucose-6-phosphate 1-dehydrogenase (P11413 whole entry): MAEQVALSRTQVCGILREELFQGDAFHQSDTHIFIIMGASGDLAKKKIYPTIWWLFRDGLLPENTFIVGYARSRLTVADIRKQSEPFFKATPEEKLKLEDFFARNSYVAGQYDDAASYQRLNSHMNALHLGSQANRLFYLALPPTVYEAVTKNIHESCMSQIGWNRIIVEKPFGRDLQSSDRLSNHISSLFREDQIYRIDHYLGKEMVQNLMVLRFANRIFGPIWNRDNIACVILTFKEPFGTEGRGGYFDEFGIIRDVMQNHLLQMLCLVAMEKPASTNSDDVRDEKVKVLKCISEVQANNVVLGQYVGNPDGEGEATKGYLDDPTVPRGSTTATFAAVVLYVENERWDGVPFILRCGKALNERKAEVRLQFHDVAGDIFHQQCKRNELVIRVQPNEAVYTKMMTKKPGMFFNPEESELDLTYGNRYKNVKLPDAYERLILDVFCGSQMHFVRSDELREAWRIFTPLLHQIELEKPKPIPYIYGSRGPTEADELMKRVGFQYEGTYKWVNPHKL

As for `COc1ccccc1C(=O)N1CCN(c2ccccn2)CC1`, the AC50 entry at Cytochrome P450 3A4 is given as “inconclusive”.

Regarding `COc1ccc(OC)c(-c2csc(NC(=O)c3ccc(OCC4CCCO4)cc3)n2)c1` (configuration not stated), the IC50 in data set [1] was 2.4 µM (active); in data set [2], 2.19 µM (active).

With `COc1cccc(/C=C/c2ccc3cccc(O)c3n2)c1OC`, the IC50 in data set [3] was > 32 µM (inactive); in the data set on HEK293 [7], 10.6 µM (active); in the data set on HEK293 [9] it was > 20 µM (inactive); with HEK293 [10] it was 5.45 µM (inactive); in data set [11] it was 15.6 µM (active); in data set [12], > 31.5 µM (inactive). Besides, the IC50 in [14] was > 32 µM. For the same molecule, the EC50 in the data set on HEK293 [4] was > 20 µM (inactive); on Mu-type opioid receptor, > 32 µM (inactive); in data set [5], 1.68 µM (active); in [6], > 32 µM (inactive); on Beta-galactosidase [8] it was > 40 µM (inactive); at Beta-galactosidase [13] it was > 31.5 µM (inactive). Also, the EC50 in the data set with Streptococcus is 7.81 µM (active).

Regarding `c1ccc2c(c1)OCCOCCOCCOCCOCCOc1ccccc1OCCOCCOCCO2`, the IC50 is 2.89 µM (active) in [1], 5.48 µM (active) in data set [2], 2.76 µM (active) in [15] and 10.4 µM (active) in [17]. For the same molecule, the EC50 in data set [16] is 12.5 µM (active).

For `Cc1ccc(C)c(OCCC(=O)NCCc2ccc(S(N)(=O)=O)cc2)c1`, the IC50 in data set [18] was > 32 µM (inactive).

On to `COc1ccc(-n2c(=S)[nH]c3c(sc(=S)n3-c3ccccc3)c2=O)c(OC)c1`, for which the figures for the IC50 in data set [19] and in data set [20] were 37.6 µM (active) and > 80 µM (inactive), respectively.

As for `Clc1ccc(/N=c2\ssnc2Cl)cc1Cl`, the IC50 in data set [21] was 16.9 µM (active); at Phosphomannomutase 2 it was 88.6 µM (active).

Turning to `Cc1cc(-n2sc3ccccc3c2=O)c2ccccc2n1`, the IC50 in [21] was > 50 µM (inactive); at Phosphomannomutase 2, > 100 µM (inactive).

With `c1cncc(-c2cccnc2)c1`, the AC50 result on Cytochrome P450 2C19 was “inconclusive”; on Cytochrome P450 1A2 it was 15.8 µM (inconclusive); on Cytochrome P450 3A4 it was “inconclusive”.
